# Tested on: mouse
# Assay: Forced Swim Test (FST) in the mouse
# Assay type: in vivo
# Description: The duration of immobility during the last four minutes of the six minute test period is scored. A mouse is recorded as immobile when floating motionless or making only those movements necessary to keep its head above water.
# An augmentation of action would be reflected by a reduction in immobility that is greater than the arithimetic sum of the effect of each agent alone. […] Standard statistical tests can be used to determine if this difference is significant. The same general strategy can be applied to the forced swim test as carried out in rats (below) as well as the tail suspension test, also described below.
compound,measurement,setting,value
CC(CNS(=O)(=O)C(C)C)c1ccc(-c2ccsc2)cc1 (stereo not shown) [Example 392098],minimum effective dose (MED) in the Forced Swim Test,"392098 alone, i.p., mice",0.5 mg/kg
same,immobility of the mouse in the Forced Swim Test,392098 at a dose as low as 25 micrograms/kg combined with a subeffective dose of imipramine (5 mg/kg),statistically significant reduction in immobility
same,effect in the Forced Swim Test,"392098 by itself, low doses (0.025-0.1 mg/kg), mice",no effect
same,shift in the dose response curve of 392098,"administered in combination with a subeffective dose of imipramine, Forced Swim Test, mice",at least 20 fold
